Common to all, as to type: cell-based
One assay addresses T1, αvβ5 (Homo sapiens, UniProt P06756+P18084).
T1 construct: expressed in transfected cells; host or cells: K562
Description: Cell Adhesion Assay K562-αvβ5 (Vitronectin). The note with it: K562-αvβ5 cells, ligand Vitronectin, 2 mM MgCl2; read-out: mean affinity (pIC50) αvβ5 (converted). The protocol: (§1) The following cell lines were used, with ligands in brackets: K562-α5β1 (Fibronectin), K562-αvβ3 (LAP-b1), K562-αvβ5 (Vitronectin), K562-αvβ6 (LAP-b1), K562-αvβ8 (LAP-b1). The divalent cation used to facilitate adhesion was 2 mM MgCl2. Adhesion was quantified by cell labelling with the fluorescent dye BCECF-AM (Life Technologies), where cell suspensions at 3×10^6 cells/mL were incubated with […] of 30 mM BCECF-AM at 37° C. for 10 minutes, before dispensing into the assay plate. At the assay conclusion cells that adhered were lysed using 50 μL/well of 0.5% Triton X-100 in H2O to release fluorescence. Fluorescence intensity was detected using an Envision® plate reader (Perkin Elmer). For active antagonists in the assay, data were fitted to a 4 parameter logistic equation for IC50 determinations.

The target of the next assay is T2, αvβ3 (Homo sapiens, UniProt P05106+P06756).
T2 construct: expressed in transfected cells; host or cells: K562
The experiment in a line: Cell Adhesion Assay K562-αvβ3 (LAP-b1). Conditions: K562-αvβ3 cells, ligand LAP-b1, 2 mM MgCl2; read-out: mean affinity (pIC50) αvβ3 (converted). As to the method: as §1

A further assay addresses T3, αvβ8 (Homo sapiens, UniProt P06756+P26012).
T3 construct: expressed in transfected cells; host or cells: K562
Description: Cell Adhesion Assay K562-αvβ8 (LAP-b1). Conditions: K562-αvβ8 cells, ligand LAP-b1, 2 mM MgCl2; read-out: mean affinity (pIC50) αvβ8 (converted). The protocol:
as §1

The next assay addresses T4, αvβ6 (Homo sapiens, UniProt P06756+P18564).
T4 construct: expressed in transfected cells; host or cells: K562
The experiment in a line: Cell Adhesion Assay K562-αvβ6 (LAP-b1). Conditions: K562-αvβ6 cells, ligand LAP-b1, 2 mM MgCl2; read-out: mean affinity (pIC50) αvβ6 (converted). As to the method:
as §1

The target of another assay is αvβ1 (Homo sapiens, UniProt P05556+P06756). Description: Cell Adhesion Assay αvβ1. Conditions: 2 mM MgCl2, cell line and ligand for αvβ1 not given, read-out: mean affinity (pIC50) αvβ1 (converted).

T3 sequence (P06756 31-889 limits assumed): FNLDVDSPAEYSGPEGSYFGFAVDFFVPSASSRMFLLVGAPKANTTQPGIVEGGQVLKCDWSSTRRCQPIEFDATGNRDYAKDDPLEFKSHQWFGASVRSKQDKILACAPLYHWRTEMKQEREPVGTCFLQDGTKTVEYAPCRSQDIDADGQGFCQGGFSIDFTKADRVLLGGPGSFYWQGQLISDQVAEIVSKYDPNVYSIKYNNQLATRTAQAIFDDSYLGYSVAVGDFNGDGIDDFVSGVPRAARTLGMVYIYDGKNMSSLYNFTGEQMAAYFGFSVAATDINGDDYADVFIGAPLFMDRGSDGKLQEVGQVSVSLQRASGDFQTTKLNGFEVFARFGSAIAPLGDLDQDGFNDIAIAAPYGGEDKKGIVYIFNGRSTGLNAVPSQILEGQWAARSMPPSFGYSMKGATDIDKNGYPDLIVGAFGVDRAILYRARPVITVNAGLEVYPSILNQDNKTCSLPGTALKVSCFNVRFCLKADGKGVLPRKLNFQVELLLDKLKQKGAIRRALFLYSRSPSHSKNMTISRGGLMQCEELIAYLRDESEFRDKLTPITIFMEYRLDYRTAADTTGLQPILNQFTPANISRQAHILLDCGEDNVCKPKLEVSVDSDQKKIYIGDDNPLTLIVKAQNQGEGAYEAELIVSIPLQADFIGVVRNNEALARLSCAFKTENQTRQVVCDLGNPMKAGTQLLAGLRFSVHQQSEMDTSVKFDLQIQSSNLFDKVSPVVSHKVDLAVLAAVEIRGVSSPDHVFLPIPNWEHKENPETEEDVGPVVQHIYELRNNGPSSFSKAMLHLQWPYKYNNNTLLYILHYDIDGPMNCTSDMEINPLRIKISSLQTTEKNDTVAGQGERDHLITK
T3 sequence (P06756 891-1048 partner limits assumed): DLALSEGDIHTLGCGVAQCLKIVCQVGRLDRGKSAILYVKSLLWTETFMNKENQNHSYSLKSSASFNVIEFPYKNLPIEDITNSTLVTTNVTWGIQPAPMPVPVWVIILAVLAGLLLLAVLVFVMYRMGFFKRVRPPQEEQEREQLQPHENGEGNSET
T3 sequence (P26012 43-769): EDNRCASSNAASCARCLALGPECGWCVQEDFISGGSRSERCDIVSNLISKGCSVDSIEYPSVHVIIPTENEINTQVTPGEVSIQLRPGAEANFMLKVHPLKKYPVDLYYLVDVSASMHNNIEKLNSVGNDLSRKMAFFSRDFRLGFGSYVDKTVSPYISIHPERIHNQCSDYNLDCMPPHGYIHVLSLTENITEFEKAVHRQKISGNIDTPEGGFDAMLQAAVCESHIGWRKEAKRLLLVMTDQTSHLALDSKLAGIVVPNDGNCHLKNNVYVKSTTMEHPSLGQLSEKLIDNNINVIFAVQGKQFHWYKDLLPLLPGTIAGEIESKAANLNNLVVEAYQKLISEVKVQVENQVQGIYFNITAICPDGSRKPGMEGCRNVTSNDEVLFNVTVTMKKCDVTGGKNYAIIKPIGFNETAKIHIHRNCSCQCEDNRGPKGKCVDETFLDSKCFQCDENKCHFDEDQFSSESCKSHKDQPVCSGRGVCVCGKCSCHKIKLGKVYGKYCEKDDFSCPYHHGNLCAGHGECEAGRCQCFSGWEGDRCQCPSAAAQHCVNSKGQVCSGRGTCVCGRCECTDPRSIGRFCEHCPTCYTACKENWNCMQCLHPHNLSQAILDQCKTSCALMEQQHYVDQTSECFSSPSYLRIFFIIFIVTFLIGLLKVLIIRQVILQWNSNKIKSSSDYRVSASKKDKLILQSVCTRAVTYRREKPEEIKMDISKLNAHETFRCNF
T2 sequence (P06756 31-889 limits assumed): as the sequence (P06756 31-889 limits assumed) above
T2 sequence (P06756 891-1048 partner limits assumed): as the sequence (P06756 891-1048 partner limits assumed) above
T2 sequence (P05106 27-788): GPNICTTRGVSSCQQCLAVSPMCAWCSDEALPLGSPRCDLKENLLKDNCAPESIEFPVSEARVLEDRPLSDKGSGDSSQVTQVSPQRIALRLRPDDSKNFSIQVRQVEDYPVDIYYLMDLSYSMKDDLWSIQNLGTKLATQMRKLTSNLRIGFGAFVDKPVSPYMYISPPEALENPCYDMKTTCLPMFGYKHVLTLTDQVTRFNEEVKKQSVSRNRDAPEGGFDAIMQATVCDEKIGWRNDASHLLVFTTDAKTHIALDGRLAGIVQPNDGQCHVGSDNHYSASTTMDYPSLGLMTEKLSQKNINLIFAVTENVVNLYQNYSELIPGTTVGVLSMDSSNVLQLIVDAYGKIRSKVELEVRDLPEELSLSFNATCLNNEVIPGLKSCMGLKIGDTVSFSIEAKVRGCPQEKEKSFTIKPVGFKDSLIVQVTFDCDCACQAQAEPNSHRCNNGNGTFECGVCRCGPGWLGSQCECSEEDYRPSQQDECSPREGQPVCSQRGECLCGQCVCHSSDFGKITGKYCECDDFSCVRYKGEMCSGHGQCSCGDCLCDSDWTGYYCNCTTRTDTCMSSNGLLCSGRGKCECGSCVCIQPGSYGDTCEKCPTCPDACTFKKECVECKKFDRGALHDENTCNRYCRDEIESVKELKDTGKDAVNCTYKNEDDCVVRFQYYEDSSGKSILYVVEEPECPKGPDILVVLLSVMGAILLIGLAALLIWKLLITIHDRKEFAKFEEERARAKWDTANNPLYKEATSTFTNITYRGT
T4 sequence (P06756 31-889 limits assumed): as the sequence (P06756 31-889 limits assumed) above
T4 sequence (P06756 891-1048 partner limits assumed): as the sequence (P06756 891-1048 partner limits assumed) above
T4 sequence (P18564 22-788): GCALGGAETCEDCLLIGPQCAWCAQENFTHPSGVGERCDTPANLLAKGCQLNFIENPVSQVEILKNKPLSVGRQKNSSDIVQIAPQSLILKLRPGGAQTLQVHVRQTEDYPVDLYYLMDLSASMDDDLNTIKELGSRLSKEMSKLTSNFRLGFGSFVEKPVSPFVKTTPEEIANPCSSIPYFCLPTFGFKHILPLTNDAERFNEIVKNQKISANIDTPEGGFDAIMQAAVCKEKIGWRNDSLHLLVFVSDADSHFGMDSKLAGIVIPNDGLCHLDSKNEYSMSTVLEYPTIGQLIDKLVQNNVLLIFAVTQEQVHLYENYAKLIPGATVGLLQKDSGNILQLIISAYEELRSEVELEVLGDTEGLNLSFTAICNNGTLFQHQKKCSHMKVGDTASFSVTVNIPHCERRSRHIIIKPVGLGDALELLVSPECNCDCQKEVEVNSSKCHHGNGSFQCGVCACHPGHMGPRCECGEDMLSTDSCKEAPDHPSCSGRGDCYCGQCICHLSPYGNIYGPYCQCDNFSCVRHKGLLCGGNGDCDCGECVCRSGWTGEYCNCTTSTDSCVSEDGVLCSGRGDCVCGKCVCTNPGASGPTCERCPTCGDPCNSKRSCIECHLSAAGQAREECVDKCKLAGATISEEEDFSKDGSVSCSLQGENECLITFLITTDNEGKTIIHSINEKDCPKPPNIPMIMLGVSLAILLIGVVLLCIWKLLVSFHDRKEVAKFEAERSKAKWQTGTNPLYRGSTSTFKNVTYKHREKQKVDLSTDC
T1 sequence (P06756 31-889 limits assumed): as the sequence (P06756 31-889 limits assumed) above
T1 sequence (P06756 891-1048 partner limits assumed): as the sequence (P06756 891-1048 partner limits assumed) above
T1 sequence (P18084 24-799): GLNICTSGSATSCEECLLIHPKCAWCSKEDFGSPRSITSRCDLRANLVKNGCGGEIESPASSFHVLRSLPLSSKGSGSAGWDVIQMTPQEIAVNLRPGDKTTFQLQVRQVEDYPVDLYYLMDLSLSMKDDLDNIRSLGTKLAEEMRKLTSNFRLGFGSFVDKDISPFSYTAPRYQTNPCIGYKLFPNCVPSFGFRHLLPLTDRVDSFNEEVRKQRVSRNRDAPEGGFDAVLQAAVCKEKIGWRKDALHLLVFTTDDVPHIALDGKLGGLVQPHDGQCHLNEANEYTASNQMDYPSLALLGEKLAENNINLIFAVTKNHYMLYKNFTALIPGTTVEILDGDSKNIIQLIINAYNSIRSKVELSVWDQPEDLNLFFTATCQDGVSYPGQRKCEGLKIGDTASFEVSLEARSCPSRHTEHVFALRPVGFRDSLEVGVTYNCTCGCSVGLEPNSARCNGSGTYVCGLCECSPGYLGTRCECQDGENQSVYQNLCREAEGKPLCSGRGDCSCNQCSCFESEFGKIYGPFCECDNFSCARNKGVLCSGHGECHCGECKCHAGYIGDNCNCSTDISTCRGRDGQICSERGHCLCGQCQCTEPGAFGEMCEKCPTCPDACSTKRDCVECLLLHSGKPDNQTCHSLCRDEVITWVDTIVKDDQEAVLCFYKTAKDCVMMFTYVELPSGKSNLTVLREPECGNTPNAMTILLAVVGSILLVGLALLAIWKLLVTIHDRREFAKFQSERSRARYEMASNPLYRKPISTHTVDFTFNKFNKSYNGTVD

`Cc1cc(C(C)(C)O)nn1-c1cccc(C(CC(=O)O)CN2CC[C@@H](CCc3ccc4c(n3)NCCC4)C2)c1` (single isomer, unassigned) [Example 6]: the IC50 on αvβ5 is 200 nM; at αvβ3, 3980 nM; at αvβ8 it was 50.1 nM; on αvβ6, 12.6 nM.

Turning to `Cc1cc(CO)nn1-c1cccc(C(CC(=O)O)CN2CC[C@@H](CCc3ccc4c(n3)NCCC4)C2)c1` (single isomer, unassigned) [Example 10], the IC50 at αvβ5 was 158 nM; on αvβ3, 631 nM; on αvβ8 it was 10 nM; on αvβ6, 2.51 nM.

With `O=C(O)CC(CN1CC[C@@H](CCc2ccc3c(n2)NCCC3)C1)c1cccc(-n2ccc(C(F)(F)F)n2)c1` (stereo partly drawn) [Example 7, 4-((R)-3-(2-(5,6,7,8-tetrahydro-1,8-naphthyridin-2-yl)ethyl)pyrrolidin-1-yl)-3-(3-(3-(trifluoromethyl)-1H-pyrazol-1-yl)phenyl) butanoic acid], the IC50 on αvβ5 is 50.1 nM; on αvβ3 it was 631 nM; at αvβ8 it was 25.1 nM; on αvβ6, 6.31 nM.

Consider `Cc1cc(CF)nn1-c1cccc(C(CC(=O)O)CN2CC[C@@H](CCc3ccc4c(n3)NCCC4)C2)c1` (stereo partly drawn) [Example 11, 3-(3-(3-(fluoromethyl)-5-methyl-1H-pyrazol-1-yl)phenyl)-4-((R)-3-(2-(5,6,7,8-tetrahydro-18-naphthyridin-2-yl)ethyl)pyrrolidin-1-yl)butanoic acid], for which the IC50 on αvβ5 was 158 nM; at αvβ1, 63.1 nM; on αvβ3 it was 1260 nM; at αvβ8 it was 15.8 nM; on αvβ6 it was 3.16 nM.
